Activity calls are given as the source filed them.
How the values were obtained:
HEK293 = assay: inhibitors of LMP1-driven NF-kB reporter, dose response, cell-based, HEK293, luciferase, cherry-pick (AID 588343); format: functional; conditions: Homo sapiens
[1] = molecular target: T1, DNA dC->dU-editing enzyme APOBEC-3G (Homo sapiens, UniProt Q9HC16); assay: Dose Response confirmation of small molecule APOBEC3G DNA Deaminase Inhibitors via a fluorescence-based single-stranded DNA deaminase assay. [Related pubchem assays (depositor defined):AID493012, AID493028]; format: functional
Cytochrome P450 2C9 [2] = molecular target: T2, Cytochrome P450 2C9 (Homo sapiens, UniProt P11712)
Cytochrome P450 3A4 = Cytochrome P450 3A4 (Homo sapiens, UniProt P08684);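 further: CYP3A4 tested as one member of a cytochrome P450 panel screen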
Cytochrome P450 2C19 = Cytochrome P450 2C19 (Homo sapiens, UniProt P33261); assay: Cytochrome panel assay with activity outcomes. Panel member name: p450-cyp2c19 Compounds with AC50 equal or less than 10 uM are considered active; format: functional
[3] = A cytotoxicity screen of small molecule inhibitors of the PhoP region in Salmonella typhi identified in the primary screen. [Related pubchem assays: 1850, 1864, 1985 ]; format: functional
[4] = molecular target: Glyceraldehyde-3-phosphate dehydrogenase (Homo sapiens, UniProt P04406)
Cytochrome P450 2C9 [5] = molecular target: T2, Cytochrome P450 2C9; remark: listed apart in the source
Cytochrome P450 1A2 = molecular target: T3, Cytochrome P450 1A2 (Homo sapiens, UniProt P05177);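 further: PubChem cytochrome P450 panel assay, CYP1A2 panel member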
T3 sequence (P05177 whole entry): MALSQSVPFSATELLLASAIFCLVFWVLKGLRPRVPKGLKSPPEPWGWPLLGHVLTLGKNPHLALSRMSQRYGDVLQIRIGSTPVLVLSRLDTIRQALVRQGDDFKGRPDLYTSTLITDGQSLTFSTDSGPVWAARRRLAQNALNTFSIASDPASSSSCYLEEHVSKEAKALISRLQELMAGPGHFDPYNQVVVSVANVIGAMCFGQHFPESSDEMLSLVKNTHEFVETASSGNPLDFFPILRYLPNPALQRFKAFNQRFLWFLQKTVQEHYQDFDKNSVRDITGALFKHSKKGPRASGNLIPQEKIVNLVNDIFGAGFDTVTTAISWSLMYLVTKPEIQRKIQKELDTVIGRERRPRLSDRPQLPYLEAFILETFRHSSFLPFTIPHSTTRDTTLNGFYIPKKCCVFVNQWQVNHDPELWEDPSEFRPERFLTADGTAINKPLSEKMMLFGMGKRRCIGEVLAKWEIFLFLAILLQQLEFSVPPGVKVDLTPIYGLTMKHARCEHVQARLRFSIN

Prothrombin = Prothrombin (Homo sapiens, UniProt P00734); assay: Thrombin 1536 HTS Dose Response Confirmation. [Related pubchem assays: 1046 (Thrombin 1536 HTS; hits were confirmed in this assay)]; format: functional
[6] = molecular target: Induced myeloid leukemia cell differentiation protein Mcl-1 (Homo sapiens, UniProt Q07820); format: functional
[7] = molecular target: T1, DNA dC->dU-editing enzyme APOBEC-3G; format: functional
[8] = molecular target: DNA dC->dU-editing enzyme APOBEC-3A (Homo sapiens, UniProt P31941); assay: Dose Response confirmation of small molecule APOBEC3A DNA Deaminase Inhibitors via a fluorescence-based single-stranded DNA deaminase assay. [Related pubchem assays (depositor defined):AID493011, AID493024]; format: functional
[9] = control 3'UTR Renilla luciferase suppression, dose response, counter-screen for Shn3 inhibitor project, cell-based, Clone20-Shn3RL, cherry-picked (AID 624133); format: functional
[10] = Shn3 3'UTR reporter inhibitors, dose response, cell-based, Clone20 osteoblasts, firefly luciferase, cherry-picked (AID 624132); format: functional;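 further: firefly luciferase luminescence from reporter carrying the Shn3 3'UTR in osteoblasts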
[11] = HepG2 cell cytotoxicity, dose response, cytotoxicity control for Shn3 inhibitor project, CellTiter-Glo, cherry-picked (AID 624134); format: functional, cell-based
[12] = molecular target: T4, Carboxy-terminal domain RNA polymerase II polypeptide A small phosphatase 1 (Homo sapiens, UniProt Q9GZU7); assay: inhibitors of CTDSP1, concentration-response testing, biochemical assay, absorbance-based, actives from ultra-high-throughput screening (AID 540297); format: functional
T4 sequence (Q9GZU7 whole entry): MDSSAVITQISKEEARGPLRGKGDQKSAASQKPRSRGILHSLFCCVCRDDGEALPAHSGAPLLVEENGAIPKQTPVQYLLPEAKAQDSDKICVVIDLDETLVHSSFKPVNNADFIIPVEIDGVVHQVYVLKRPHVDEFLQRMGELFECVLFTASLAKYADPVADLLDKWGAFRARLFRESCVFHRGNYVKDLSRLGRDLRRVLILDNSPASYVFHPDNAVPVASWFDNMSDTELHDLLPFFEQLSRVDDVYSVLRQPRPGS

Caspase-6 = molecular target: T5, Caspase-6 (Homo sapiens, UniProt P55212); assay: human caspase-6 inhibitors, dose response, biochemical, VEID-R110 fluorescence, cherry-pick (AID 720632)
T5 sequence (P55212 whole entry): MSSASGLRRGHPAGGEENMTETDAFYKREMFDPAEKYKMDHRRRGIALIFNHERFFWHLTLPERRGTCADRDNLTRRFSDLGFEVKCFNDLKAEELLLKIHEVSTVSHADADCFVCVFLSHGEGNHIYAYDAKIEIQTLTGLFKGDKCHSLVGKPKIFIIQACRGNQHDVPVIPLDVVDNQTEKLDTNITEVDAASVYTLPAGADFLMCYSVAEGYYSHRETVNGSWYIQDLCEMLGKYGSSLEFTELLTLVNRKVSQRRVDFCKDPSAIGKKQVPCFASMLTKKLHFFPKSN

Paired box protein Pax-8 = Paired box protein Pax-8 (Homo sapiens, UniProt Q06710); assay: inhibitors of PAX8-driven TPO luciferase reporter, dose response, RMG-I cells, cherry-pick (AID 687027); format: functional, cell-based;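 further: luciferase reporter driven by Pax8 target thyroperoxidase promoter measured by SteadyGlo luminescence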
[13] = cytotoxicity in OVCAR8 ovarian cancer cells, dose response, PAX8 project, cell-based, plate reader, dry powder samples (AID 743197); format: functional; conditions: OVCAR-8

Sequence of Cytochrome P450 3A4 (P08684 whole entry): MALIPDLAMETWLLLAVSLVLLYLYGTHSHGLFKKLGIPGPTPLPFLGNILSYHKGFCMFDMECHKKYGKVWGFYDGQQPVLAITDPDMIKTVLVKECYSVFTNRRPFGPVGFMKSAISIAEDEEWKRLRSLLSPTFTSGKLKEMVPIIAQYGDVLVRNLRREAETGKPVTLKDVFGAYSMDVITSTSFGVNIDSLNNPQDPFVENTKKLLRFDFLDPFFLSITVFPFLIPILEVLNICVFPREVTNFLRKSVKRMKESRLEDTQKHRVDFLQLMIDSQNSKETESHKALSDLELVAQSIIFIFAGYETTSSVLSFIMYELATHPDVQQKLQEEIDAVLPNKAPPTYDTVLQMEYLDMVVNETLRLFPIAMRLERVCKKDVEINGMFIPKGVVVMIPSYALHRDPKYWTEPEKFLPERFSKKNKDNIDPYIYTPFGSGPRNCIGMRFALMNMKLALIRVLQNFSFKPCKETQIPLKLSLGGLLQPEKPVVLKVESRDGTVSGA
T2 sequence (P11712 whole entry): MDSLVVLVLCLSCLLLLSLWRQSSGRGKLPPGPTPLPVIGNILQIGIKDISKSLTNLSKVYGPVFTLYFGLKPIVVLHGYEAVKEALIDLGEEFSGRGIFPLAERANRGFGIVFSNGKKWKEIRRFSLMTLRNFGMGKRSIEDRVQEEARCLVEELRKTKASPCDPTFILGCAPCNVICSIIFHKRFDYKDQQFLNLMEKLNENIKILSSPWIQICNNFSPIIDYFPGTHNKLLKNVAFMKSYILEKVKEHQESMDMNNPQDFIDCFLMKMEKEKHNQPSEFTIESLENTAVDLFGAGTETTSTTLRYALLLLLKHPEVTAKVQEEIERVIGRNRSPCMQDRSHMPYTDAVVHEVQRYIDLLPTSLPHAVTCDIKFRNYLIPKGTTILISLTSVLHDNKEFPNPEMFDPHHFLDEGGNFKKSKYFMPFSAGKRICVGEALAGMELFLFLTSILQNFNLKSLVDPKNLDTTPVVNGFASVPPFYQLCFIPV
T1 sequence (Q9HC16 whole entry): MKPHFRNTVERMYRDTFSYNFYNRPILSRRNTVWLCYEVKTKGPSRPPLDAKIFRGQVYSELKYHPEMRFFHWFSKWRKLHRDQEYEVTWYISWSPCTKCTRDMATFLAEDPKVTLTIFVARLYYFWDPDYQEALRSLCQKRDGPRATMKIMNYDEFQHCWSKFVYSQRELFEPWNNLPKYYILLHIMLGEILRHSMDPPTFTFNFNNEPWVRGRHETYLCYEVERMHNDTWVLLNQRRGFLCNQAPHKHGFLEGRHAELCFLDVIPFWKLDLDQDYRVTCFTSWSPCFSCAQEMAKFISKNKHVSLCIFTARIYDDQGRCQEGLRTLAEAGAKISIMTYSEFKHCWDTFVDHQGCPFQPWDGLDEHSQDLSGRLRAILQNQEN
Sequence of Cytochrome P450 2C19 (P33261 whole entry): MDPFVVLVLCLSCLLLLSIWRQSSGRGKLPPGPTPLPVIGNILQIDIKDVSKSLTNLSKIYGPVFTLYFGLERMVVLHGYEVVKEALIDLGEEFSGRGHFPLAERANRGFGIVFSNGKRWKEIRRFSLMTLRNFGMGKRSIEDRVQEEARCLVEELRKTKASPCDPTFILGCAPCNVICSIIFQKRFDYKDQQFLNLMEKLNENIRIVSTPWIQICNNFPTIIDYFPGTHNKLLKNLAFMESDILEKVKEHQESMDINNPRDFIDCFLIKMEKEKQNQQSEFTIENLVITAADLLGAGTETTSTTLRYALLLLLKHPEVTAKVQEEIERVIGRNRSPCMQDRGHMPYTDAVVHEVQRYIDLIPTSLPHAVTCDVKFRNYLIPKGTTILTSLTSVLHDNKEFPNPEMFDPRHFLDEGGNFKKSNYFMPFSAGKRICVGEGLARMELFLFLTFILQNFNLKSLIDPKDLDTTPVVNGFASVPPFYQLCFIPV
Sequence of DNA dC->dU-editing enzyme APOBEC-3A (P31941 whole entry): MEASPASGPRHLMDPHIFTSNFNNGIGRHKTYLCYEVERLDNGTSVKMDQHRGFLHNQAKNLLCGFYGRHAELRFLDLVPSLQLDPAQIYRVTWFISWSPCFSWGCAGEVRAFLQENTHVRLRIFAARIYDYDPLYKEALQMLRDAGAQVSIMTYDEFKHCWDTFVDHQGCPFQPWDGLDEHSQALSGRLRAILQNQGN
Sequence of Paired box protein Pax-8 (Q06710 whole entry): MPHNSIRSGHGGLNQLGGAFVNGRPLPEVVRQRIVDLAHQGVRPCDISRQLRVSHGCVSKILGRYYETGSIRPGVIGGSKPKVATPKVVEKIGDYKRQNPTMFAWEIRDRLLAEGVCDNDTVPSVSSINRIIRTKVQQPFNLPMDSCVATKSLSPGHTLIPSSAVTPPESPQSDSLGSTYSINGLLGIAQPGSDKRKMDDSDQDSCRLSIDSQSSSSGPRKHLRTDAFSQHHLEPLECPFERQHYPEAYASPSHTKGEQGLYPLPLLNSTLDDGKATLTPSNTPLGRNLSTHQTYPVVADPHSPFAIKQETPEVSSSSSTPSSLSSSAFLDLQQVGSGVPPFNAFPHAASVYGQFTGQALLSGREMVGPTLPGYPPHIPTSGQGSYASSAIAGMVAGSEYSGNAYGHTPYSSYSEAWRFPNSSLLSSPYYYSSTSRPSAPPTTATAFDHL
Sequence of Induced myeloid leukemia cell differentiation protein Mcl-1 (Q07820 whole entry): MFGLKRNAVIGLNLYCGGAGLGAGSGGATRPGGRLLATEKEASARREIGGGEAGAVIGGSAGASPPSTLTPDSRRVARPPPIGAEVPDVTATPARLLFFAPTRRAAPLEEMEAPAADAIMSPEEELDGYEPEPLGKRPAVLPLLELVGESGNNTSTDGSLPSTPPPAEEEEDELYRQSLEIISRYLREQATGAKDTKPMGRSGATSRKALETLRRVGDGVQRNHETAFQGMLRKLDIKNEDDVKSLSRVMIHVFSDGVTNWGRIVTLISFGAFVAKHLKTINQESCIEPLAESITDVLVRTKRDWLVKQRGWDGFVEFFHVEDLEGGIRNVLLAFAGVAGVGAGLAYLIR
Sequence of Glyceraldehyde-3-phosphate dehydrogenase (P04406 whole entry): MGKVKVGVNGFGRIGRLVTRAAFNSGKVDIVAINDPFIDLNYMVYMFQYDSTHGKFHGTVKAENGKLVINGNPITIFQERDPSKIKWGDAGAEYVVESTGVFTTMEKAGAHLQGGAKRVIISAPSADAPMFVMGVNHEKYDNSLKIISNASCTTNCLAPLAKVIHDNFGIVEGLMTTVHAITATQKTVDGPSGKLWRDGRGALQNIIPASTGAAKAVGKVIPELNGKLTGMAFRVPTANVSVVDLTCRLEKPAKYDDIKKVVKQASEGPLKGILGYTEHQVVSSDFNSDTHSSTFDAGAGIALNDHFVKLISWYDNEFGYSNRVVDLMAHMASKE

Compound: Cc1ccc(-n2c(C)c([N+](=O)[O-])c3ccc(O)c(CN(C)C)c32)cc1
- AC50 (HEK293): 8.54 µM (active)

Compound: CC(C)Cn1c(S)nnc1-c1ccc(F)cc1
- IC50 [1]: 9.54 µM (active)

Compound: O=C(NOCc1ccccc1)c1ccc(Cl)cc1Cl
- AC50 (HEK293): 3.33 µM (active)

Compound: CN1C(=O)NC(c2ccc(O)cc2)C(C(=O)c2cccs2)C1(O)C(F)(F)F (stereo unspecified)
- AC50 (Cytochrome P450 2C9 [2]): 39.8 µM (inconclusive)
- AC50 (Cytochrome P450 3A4): 25.1 µM (inconclusive)
- AC50 (Cytochrome P450 2C19; read-out: AC50): 15.8 µM (inconclusive)
- EC50 [3]: > 50 µM (active)

Compound: Cc1ccc(NC(=O)c2sccc2C)cc1[N+](=O)[O-]
- EC50 [3]: > 50 µM (active)

Compound: C=CCc1cccc2cc(C(=O)Nc3cccc(C(=O)O)c3)c(=O)oc12
- IC50 [4]: > 100 µM (not active)

Compound: CCCCC(=O)NC(=S)Nc1cccc(NC(=O)CC)c1
- AC50 (Cytochrome P450 2C9 [5]): inconclusive
- AC50 (Cytochrome P450 3A4): 20 µM (inconclusive)
- AC50 (Cytochrome P450 1A2): 15.8 µM (inconclusive)

Compound: CCN1CCN(CC(=O)c2cc(OC)c(OC)c(OC)c2)CC1
- IC50 (Prothrombin): > 50 µM (not active)

Compound: COc1cc(C2C3=C(O)c4ccccc4C3=Nc3nc(N)nc(O)c32)ccc1O (stereo unspecified)
- IC50 [6]: 2.76 µM (active)

Compound: CC(C[N+](C)(C)C)OC(=O)C1(c2ccccc2)CCCC1 (stereo unspecified)
- IC50 [7]: 3.58 µM (active)
- IC50 [8]: 2.56 µM (active)

Compound: CN(C)c1ccc(C=Cc2ccnc3c(O)cccc23)cc1
- AC50 [9]: 2.57 µM (active)
- AC50 [10]: 1.43 µM (active)
- AC50 (HEK293): 10 µM (active)
- AC50 [11]: 52.7 µM (active)

Compound: Cc1ccc(S(=O)(=O)Nc2csc(C)c2C(=O)O)cc1
- IC50 [12]: 3.94 µM (active)
- AC50 (Caspase-6): 4.99 µM (active)

Compound: COc1ccc(CN2[C@H](CO)[C@H]3c4ccccc4NC[C@H]32)cc1
- AC50 (Paired box protein Pax-8): 11.2 µM (active)
- AC50 [13]: > 70 µM (inactive)

Compound: CCN1C[C@]2(COC(=O)c3ccccc3N3C(=O)C[C@H](C)C3=O)CC[C@H](OC)[C@]34[C@@H]5C[C@@H]6[C@H](OC)[C@H]5[C@](O)(C[C@@H]6OC)C(O)([C@@H]13)[C@@H](OC)[C@@H]24
- AC50 (Cytochrome P450 2C9 [5]): inconclusive
- AC50 (Cytochrome P450 1A2): 39.8 µM (inconclusive)

Compound: O=[N+]([O-])c1ccc(N2CCNCC2)cc1NCc1cccnc1
- EC50 [3]: > 50 µM (active)

Compound: CCCCN1CCC(COC(=O)c2cc(Cl)c(N)c3c2OCCO3)CC1
- AC50 (Cytochrome P450 2C9 [5]): inconclusive
- AC50 (Cytochrome P450 3A4): 3.16 µM (inconclusive)

Compound: Cn1cnc(CCN)c1 [N-METHYLHISTAMINE]
- AC50 (Cytochrome P450 2C9 [5]): inconclusive
- AC50 (Cytochrome P450 2C19): inconclusive

From ChEMBL document CHEMBL1201862, “PubChem BioAssay data set” (2004)
